According to ChEMBL document CHEMBL5696439 (Cancer Res, 2010):
Calls of active or inactive are those of the source. The calls are words filed in the database; no cut-off is given here.

Columns and labels:
MDA-MB-361 [1] = test: Induction of apoptosis in human MDA-MB-361 cells assessed as PARP cleavage at 0.05 to 5 micromol/L incubated for 48 hrs by Western blot analysis; type: functional, cell-based; conditions: dose 0.05-5 µmol/L
[2] = molecular target: MAP kinase-activated protein kinase 3 (Homo sapiens) (UniProt Q16644); test: Inhibition of recombinant human full length His-tagged MAPKAPK3 expressed in baculovirus expression system at 2 uM using Ser/Thr 04 as substrate measured after 1 hr by Z'-LYTE assay relative to control
[3] = molecular target: Ephrin type-B receptor 1 (Homo sapiens) (UniProt P54762); test: Inhibition of recombinant human GST-tagged EPHB1 (613-881 residues) expressed in insect cells at 2 uM using Tyr 02 as substrate measured after 1 hr by Z'-LYTE assay relative to control; conditions: Insect cell
[4] = molecular target: NT-3 growth factor receptor (Homo sapiens) (UniProt Q16288); test: Inhibition of recombinant human His-tagged NTRK3 (510-825 residues) expressed in baculovirus expression system at 2 uM using Tyr 01 as substrate measured after 1 hr by Z'-LYTE assay relative to control
[5] = molecular target: Protein-tyrosine kinase 6 (Homo sapiens) (UniProt Q13882); test: Inhibition of recombinant human full length His-tagged PTK6 expressed in baculovirus expression system at 2 uM using […] as substrate measured after 1 hr by Z'-LYTE assay relative to control
Sequence of Protein-tyrosine kinase 6 (Homo sapiens) (Q13882 whole entry, looked up): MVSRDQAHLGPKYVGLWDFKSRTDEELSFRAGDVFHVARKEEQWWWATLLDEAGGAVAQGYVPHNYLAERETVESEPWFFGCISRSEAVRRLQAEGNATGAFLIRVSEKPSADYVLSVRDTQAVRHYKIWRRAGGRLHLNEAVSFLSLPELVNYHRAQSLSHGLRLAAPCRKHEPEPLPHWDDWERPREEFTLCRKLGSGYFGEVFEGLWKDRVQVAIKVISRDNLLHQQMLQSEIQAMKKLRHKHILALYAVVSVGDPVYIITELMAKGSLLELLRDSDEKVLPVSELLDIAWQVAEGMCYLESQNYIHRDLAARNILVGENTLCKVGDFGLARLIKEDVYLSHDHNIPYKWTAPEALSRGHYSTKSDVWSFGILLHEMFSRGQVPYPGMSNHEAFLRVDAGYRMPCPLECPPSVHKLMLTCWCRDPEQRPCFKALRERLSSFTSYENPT

[6] = molecular target: Ribosomal protein S6 kinase alpha-5 (Homo sapiens) (UniProt O75582); test: Inhibition of recombinant human full length GST-tagged RPS6KA5 expressed in insect cells at 2 uM using Ser/Thr 01 as substrate measured after 1 hr by Z'-LYTE assay relative to control; conditions: Insect cell
HT-29 = test: Antitumor activity against human HT-29 cells xenografted in female nude mouse model assessed as suppression in P-S6K at T389 level at 50 mg/kg, iv administered once a week and measured at least 8 hrs by immunoblot analysis; type: functional, organism-based
BT-549 = test: Antiproliferative activity against human BT-549 cells assessed as cell growth inhibition incubated for 24 hrs by MTS assay; type: functional, cell-based; conditions: BT-549, 24 h
[7] = molecular target: Tyrosine-protein kinase Lck (Homo sapiens) (UniProt P06239); test: Inhibition of recombinant human full-length His-tagged LCK expressed in insect cells at 2 uM using Tyr 02 as substrate measured after 1 hr by Z'-LYTE assay relative to control; conditions: Insect cell
[8] = molecular target: Ribosomal protein S6 kinase alpha-1 (Homo sapiens) (UniProt Q15418); test: Inhibition of recombinant human full length His-tagged RPS6KA1 expressed in insect cells at 2 uM using Ser/Thr 06 as substrate measured after 1 hr by Z'-LYTE assay relative to control; conditions: Insect cell
[9] = molecular target: Glycogen synthase kinase-3 alpha (Homo sapiens) (UniProt P49840); test: Inhibition of recombinant human full-length GST-tagged GSK3A expressed in insect cells at 2 uM using Ser/Thr 09 as substrate measured after 1 hr by Z'-LYTE assay relative to control; conditions: Insect cell
[10] = molecular target: ALK tyrosine kinase receptor (Homo sapiens) (UniProt Q9UM73); test: Inhibition of recombinant human GST-tagged ALK (1058 to 1620 residues) expressed in insect cells at 2 uM using Tyr 01 as substrate measured after 1 hr by Z'-LYTE assay relative to control; conditions: Insect cell
[11] = molecular target: Tyrosine-protein kinase Fes/Fps (Homo sapiens) (UniProt P07332); test: Inhibition of recombinant human full-length His-tagged FES expressed in baculovirus expression system at 2 uM using Tyr 01 as substrate measured after 1 hr by Z'-LYTE assay relative to control
Sequence of Tyrosine-protein kinase Fes/Fps (Homo sapiens) (P07332 whole entry): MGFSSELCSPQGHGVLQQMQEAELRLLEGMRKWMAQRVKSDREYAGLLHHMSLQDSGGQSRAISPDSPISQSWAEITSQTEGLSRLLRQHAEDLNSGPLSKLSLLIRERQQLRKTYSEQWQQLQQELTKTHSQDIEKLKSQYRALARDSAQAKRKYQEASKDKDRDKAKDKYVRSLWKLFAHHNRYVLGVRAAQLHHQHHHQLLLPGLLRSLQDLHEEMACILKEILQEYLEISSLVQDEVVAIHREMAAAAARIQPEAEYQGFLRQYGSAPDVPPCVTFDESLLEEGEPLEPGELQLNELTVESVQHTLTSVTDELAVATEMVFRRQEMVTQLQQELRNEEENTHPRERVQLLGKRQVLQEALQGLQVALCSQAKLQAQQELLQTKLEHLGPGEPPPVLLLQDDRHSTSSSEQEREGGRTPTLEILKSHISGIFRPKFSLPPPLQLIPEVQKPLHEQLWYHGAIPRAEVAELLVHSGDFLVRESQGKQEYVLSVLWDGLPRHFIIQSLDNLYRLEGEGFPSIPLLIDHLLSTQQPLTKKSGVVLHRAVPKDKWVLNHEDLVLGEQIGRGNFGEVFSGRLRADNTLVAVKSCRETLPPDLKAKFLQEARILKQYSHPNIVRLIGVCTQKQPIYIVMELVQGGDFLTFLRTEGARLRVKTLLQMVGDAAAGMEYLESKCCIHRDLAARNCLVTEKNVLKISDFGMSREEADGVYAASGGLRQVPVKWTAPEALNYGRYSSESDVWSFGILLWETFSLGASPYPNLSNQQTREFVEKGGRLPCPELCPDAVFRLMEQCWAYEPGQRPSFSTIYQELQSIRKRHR

[12] = molecular target: Aurora kinase B (Homo sapiens) (UniProt Q96GD4); test: Inhibition of recombinant human full-length His-tagged AURKB expressed in insect cells at 2 uM using Ser/Thr 01 as substrate measured after 1 hr by Z'-LYTE assay relative to control; conditions: Insect cell
Sequence of Aurora kinase B (Homo sapiens) (Q96GD4 whole entry): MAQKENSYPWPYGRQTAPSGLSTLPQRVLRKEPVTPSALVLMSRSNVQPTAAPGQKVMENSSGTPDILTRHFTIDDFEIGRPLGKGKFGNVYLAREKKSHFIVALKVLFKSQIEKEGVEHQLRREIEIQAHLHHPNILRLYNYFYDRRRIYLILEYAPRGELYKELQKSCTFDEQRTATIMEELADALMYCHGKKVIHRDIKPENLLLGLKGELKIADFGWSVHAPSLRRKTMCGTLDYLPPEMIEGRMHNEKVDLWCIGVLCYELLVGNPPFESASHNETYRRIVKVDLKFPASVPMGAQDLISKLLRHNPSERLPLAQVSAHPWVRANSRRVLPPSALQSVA

NCI-H1975 = test: Induction of apoptosis in human NCI-H1975 cells assessed as increase in PARP cleavage at 0.3 to 3 micromol/L incubated for 48 hrs by Western blot analysis; type: functional, cell-based; conditions: dose 0.3-3 µmol/L
[13] = system: Tyrosine-protein kinase ABL1 (Homo sapiens), P00519 [E255K]; test: Inhibition of recombinant human full-length His-tagged ABL1 E255K mutant expressed in insect cells at 2 uM using Tyr 02 as substrate measured after 1 hr by Z'-LYTE assay relative to control; conditions: Insect cell
Sequence of Tyrosine-protein kinase ABL1 (Homo sapiens), P00519 [E255K] (P00519 whole entry E255K, the tested form may be a part): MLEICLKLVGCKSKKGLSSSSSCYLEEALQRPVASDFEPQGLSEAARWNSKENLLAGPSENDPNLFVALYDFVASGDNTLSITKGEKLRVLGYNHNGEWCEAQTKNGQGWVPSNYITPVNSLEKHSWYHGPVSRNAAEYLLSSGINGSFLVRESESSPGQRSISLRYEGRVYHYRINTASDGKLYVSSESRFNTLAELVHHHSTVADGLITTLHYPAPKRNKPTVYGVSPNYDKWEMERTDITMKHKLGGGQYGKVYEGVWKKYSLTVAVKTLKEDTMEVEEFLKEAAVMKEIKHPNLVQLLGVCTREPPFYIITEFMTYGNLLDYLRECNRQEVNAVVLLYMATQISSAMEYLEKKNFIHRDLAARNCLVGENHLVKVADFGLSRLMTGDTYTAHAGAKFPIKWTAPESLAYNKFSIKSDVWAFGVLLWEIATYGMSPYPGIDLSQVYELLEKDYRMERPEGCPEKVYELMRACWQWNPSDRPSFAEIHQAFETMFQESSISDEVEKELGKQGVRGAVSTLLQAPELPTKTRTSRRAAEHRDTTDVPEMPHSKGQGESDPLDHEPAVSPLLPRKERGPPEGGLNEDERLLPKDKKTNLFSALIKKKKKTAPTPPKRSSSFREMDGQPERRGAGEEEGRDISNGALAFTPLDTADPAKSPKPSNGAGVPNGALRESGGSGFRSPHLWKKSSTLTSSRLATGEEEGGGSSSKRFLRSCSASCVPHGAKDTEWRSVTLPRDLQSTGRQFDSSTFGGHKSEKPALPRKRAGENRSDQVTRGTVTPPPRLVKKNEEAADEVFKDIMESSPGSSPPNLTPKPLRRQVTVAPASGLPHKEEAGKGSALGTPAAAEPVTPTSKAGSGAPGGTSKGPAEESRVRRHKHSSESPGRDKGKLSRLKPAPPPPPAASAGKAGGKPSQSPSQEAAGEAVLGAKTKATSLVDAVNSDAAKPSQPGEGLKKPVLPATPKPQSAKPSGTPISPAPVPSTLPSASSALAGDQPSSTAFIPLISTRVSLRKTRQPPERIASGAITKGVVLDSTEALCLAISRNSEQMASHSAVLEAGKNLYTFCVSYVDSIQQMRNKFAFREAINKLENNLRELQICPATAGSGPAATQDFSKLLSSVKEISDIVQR

[14] = system: Proto-oncogene tyrosine-protein kinase receptor Ret (Homo sapiens), P07949 [V804L]; test: Inhibition of recombinant human GST-tagged RET V804L mutant (658-1114 residues) expressed in baculovirus expression system at 2 uM using Tyr 02 as substrate measured after 1 hr by Z'-LYTE assay relative to control
Sequence of Proto-oncogene tyrosine-protein kinase receptor Ret (Homo sapiens), P07949 [V804L] (P07949 whole entry V804L, the tested form may be a part): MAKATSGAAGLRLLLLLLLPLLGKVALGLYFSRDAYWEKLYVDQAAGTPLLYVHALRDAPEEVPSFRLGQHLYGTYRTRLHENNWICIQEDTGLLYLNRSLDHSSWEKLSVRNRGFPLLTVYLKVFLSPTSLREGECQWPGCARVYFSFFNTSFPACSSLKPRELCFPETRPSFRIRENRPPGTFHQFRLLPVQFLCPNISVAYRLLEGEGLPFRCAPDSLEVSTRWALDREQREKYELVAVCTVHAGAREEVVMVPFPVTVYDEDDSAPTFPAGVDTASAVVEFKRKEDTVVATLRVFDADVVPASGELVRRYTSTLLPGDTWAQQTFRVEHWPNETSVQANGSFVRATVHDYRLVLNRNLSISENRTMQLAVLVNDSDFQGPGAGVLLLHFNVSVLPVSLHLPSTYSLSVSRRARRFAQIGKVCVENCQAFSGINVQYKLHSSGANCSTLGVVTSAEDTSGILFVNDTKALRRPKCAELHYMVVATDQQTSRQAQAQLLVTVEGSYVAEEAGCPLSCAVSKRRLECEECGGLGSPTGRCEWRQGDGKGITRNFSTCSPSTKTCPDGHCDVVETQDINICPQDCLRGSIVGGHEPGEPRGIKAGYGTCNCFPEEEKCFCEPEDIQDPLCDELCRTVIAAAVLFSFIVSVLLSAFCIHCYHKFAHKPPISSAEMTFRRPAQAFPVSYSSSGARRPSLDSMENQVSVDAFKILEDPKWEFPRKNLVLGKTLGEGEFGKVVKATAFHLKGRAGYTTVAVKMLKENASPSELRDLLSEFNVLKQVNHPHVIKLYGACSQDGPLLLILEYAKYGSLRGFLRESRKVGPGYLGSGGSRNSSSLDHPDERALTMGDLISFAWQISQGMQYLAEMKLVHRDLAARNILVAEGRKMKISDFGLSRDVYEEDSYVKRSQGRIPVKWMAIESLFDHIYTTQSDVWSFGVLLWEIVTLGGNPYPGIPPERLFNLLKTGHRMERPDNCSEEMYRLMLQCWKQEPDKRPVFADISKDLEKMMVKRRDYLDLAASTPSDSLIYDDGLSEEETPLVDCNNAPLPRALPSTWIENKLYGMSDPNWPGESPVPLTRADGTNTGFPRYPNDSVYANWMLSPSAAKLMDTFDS

A549 = test: Induction of apoptosis in human A549 cells assessed as increase in G1 phase at 1 micromol/L incubated for 24 hrs by FACS analysis; type: functional, cell-based; conditions: dose 1.0 µmol/L
MDA-MB-361 [15] = test: Antitumor activity against human MDA-MB-361 cells xenografted in female nude mouse model assessed as suppression in P-S6 level at 6 to 12 mg/kg, po qd administered as 5 days on/2 days off regimen for 4 cycles by immunoblot analysis; type: functional, organism-based; conditions: dose 6-12 mg/kg, time 28.0 day
[16] = molecular target: Calcium/calmodulin-dependent protein kinase type 1D (Homo sapiens) (UniProt Q8IU85); test: Inhibition of recombinant human full-length His-tagged CAMK1D expressed in insect cells at 2 uM using Ser/Thr 25 as substrate measured after 1 hr by Z'-LYTE assay relative to control; conditions: Insect cell
[17] = system: Epidermal growth factor receptor (Homo sapiens), P00533 [T790M]; test: Inhibition of recombinant human GST-tagged EGFR T790M mutant (668-1210 residues) expressed in insect cells at 2 uM using Tyr 04 as substrate measured after 1 hr by Z'-LYTE assay relative to control; conditions: Insect cell
Sequence of Epidermal growth factor receptor (Homo sapiens), P00533 [T790M] (P00533 whole entry T790M, the tested form may be a part): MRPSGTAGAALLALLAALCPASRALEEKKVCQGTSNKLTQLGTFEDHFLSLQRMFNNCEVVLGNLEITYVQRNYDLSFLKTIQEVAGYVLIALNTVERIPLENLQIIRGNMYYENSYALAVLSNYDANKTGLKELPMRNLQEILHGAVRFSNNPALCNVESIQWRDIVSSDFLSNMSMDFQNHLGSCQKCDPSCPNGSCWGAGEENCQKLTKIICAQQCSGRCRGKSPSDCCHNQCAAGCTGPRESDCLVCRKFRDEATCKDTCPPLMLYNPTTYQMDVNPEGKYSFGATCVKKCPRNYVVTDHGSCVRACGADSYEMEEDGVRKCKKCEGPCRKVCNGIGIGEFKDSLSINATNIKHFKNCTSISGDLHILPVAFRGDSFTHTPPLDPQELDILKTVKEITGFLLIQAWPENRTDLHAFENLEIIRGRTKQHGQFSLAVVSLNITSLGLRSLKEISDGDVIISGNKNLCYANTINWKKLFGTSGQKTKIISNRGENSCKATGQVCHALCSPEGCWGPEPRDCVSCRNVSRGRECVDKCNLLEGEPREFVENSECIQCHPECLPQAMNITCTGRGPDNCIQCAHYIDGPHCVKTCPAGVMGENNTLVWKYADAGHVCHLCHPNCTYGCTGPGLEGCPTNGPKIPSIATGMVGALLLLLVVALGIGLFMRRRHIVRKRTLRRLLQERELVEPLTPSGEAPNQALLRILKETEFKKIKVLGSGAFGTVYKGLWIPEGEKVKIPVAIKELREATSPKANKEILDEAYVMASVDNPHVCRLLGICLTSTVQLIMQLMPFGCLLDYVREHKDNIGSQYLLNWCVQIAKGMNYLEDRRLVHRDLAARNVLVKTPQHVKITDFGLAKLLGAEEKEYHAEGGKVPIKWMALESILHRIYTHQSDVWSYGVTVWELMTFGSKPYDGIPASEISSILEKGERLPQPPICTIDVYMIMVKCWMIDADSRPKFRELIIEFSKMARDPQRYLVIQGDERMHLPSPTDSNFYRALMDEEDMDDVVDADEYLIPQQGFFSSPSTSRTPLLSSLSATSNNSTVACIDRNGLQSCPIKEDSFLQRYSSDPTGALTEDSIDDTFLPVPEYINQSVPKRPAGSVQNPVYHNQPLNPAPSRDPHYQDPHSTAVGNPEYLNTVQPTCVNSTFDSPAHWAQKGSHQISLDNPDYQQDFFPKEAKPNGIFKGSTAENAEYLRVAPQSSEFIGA

[18] = molecular target: Serine/threonine-protein kinase 24 (Homo sapiens) (UniProt Q9Y6E0); test: Inhibition of recombinant human full length GST-tagged STK24 expressed in insect cells at 2 uM using Ser/Thr 07 as substrate measured after 1 hr by Z'-LYTE assay relative to control; conditions: Insect cell
PC3MM2 = test: Antitumor activity against human PC3MM2 cells xenografted in female nude mouse model assessed as reduction in P-AKT at T308 level at 50 mg/kg, iv administered once a week and measured at least 8 hrs by immunoblot analysis; type: functional, organism-based
MDA-MB-361 [19] = test: Antiproliferative activity against human MDA-MB-361 cells assessed as cell growth inhibition incubated for 1 days by MTS assay; type: functional, cell-based; conditions: MDA-MB-361, 24 h
MDA-MB-468 = test: Antiproliferative activity against human MDA-MB-468 cells assessed as cell growth inhibition incubated for 24 hrs by MTS assay; type: functional, cell-based; conditions: MDA-MB-468, 24 h
mTORC2 (Homo sapiens) = mTORC2 (Homo sapiens) (UniProt P42345+Q6R327+Q9BVC4+Q9BPZ7); conditions: U-87 MG, dose 0.025-2 µmol/L, time 6.0 hrs

CNC(=O)Nc1ccc(-c2nc(N3CC4CCC(C3)O4)c3cnn(C4CCC5(CC4)OCCO5)c3n2)cc1
Activity (MDA-MB-361 [1]): Active | inhibition [2]: 1% | inhibition [3]: 2% | inhibition [4]: 5% | inhibition [5]: 8% | inhibition [6]: 1% | Activity (HT-29): Active | IC50 (BT-549): 0.037 µM | inhibition [7]: 10% | inhibition [8]: 4% | inhibition [9]: -1% | inhibition [10]: 0% | inhibition [11]: -1% | inhibition [12]: 3% | Activity (NCI-H1975): Active | inhibition [13]: 5% | inhibition [14]: 2% | Activity (A549): Active | Activity (MDA-MB-361 [15]): Active | inhibition [16]: 0% | inhibition [17]: 2% | inhibition [18]: -1% | Activity (PC3MM2): inactive | IC50 (MDA-MB-361 [19]): 20 µM | IC50 (MDA-MB-468): 0.025 µM | inhibition (mTORC2 (Homo sapiens)): inactive
